# Values quoted from earlier work, collected in PMC6912862 (ACS Medicinal Chemistry Letters, 2019).
# Values joined by “and” are separate entries in the source; they are usually repeats but may differ in a detail not shown here. Identical values can stand only once.
# How the values were obtained:
# [1] = test system: HeLa xenograft; conditions: same conditions (2.0 mg/kg), p < 0.05
# [2] = test system: HeLa cells; conditions: cisplatin comparison
smiles,measurement,setting,value
"N.N.[Cl][Pt][Cl] [cisplatin, cis-[PtCl2(NH3)2]]","Inhibition of tumor growth (IR), cisplatin-treated groups",[1],35.2% and 35.2 ± 5.8%
same,Cell accumulation of Pt,[2],4.11 ± 0.59 (nmol of Pt)/10^6 cells
